{"source": "patent US8603964B2", "about": "“Methods for modulating angiogenesis via dystrophin Dp71” (Institut National de la Sante et de la Recherche Medicale …, priority 2008, dated 2013)", "key": {"[1]": {"tested_on": "aortic rings explants of wt mice (C57BL/6)", "test": "Mouse aortic ring explant neovessel formation, wild-type mice", "type": "cell-based", "source_text": "Thoracic aortas were removed from 2 months-old mice (C57BL/6 and Dp71-null mice) killed by CO2 asphyxiation and immediately transferred to a culture dish containing ice-cold endothelial cell basal medium (EGM-2; Cambrex Bioscience). The periaortic fibroadipose tissue was carefully removed with fine microdissecting forceps and scissors, paying special attention not to damage the aortic wall. One millimeters-long aortic rinaortic rings explants gs (15 per aorta from 12 mice) were sectioned and rinsed extensively in eight consecutive washes of EGM-2. The rings were then individually embedded in 48-well plates previously coated with 50 μl synthetic basement membrane (Matrigel; BD Bioscience) per well. After 1 hour, 500 μl EGM-2 was added to each well, and the cultures were incubated at 37° C. for 5 days. The culture medium was change each day. […] For all cell treatment, the final DMSO concentration was adjusted to 0.1%. The aortic rings were photographed on day 4 at ×2 magnification with a macroscope (Leica). The angiogenic response was determined by measuring the area of neovessel formation on computer (ImageJ or Photoshop software)."}, "[2]": {"tested_on": "aortic rings explants of Dp71-null mice", "test": "Mouse aortic ring explant neovessel formation, Dp71-null mice", "type": "cell-based", "parameters": "dose or concentration left out as unconfirmed", "settings": "same treatment with beta-nf, day 4", "source_text": "The Dp71-null mice strain was obtained by replacing, via homologous recombination, most of the first and unique exon of Dp71 and of a small part of the Dp71 first intron with a sequence encoding a β-gal-neomycine-(beta-gal) resistance chimeric protein (β-geo). This enabled to monitor with great sensitivity the activity of the promoter using X-gal staining (Sarig et al., 1999).\nThoracic aortas were removed from 2 months-old mice (C57BL/6 and Dp71-null mice) killed by CO2 asphyxiation and immediately transferred to a culture dish containing ice-cold endothelial cell basal medium (EGM-2; Cambrex Bioscience). The periaortic fibroadipose tissue was carefully removed with fine microdissecting forceps and scissors, paying special attention not to damage the aortic wall. One millimeters-long aortic rinaortic rings explants gs (15 per aorta from 12 mice) were sectioned and rinsed extensively in eight consecutive washes of EGM-2. The rings were then individually embedded in 48-well plates previously coated with 50 μl synthetic basement membrane (Matrigel; BD Bioscience) per well. After 1 hour, 500 μl EGM-2 was added to each well, and the cultures were incubated at 37° C. for 5 days. The culture medium was change each day. […] The angiogenic response was determined by measuring the area of neovessel formation on computer (ImageJ or Photoshop software)."}, "Dp71": {"tested_on": "Dp71", "settings": "cited from earlier work"}}}
{"smiles": "O=c1cc(-c2ccccc2)oc2ccc3ccccc3c12", "note": "[beta-nf, beta-naphtoflavone]", "values": [{"measurement": "inhibition of neovessel formation", "setting": "[1]; explants of wt mice, beta-nf in 0.1% DMSO, area of neovessel formation on day 4, P<0.001", "result": 50, "unit": "%"}, {"measurement": "neoangiogenesis in aortic rings explants (in words)", "setting": "[1]; wild mice strain expressing Dp71", "result": "inhibition of neoangiogenesis"}, {"measurement": "effect on neovessel formation", "setting": "[2]", "result": "without effect"}, {"measurement": "Dp71 expression", "setting": "Dp71", "result": "inhibits Dp71 expression"}]}
